Experimental data published in patent US20150268248A1, “CELL SELECTIVE PROTEOME LABELING” (MEMORIAL SLOAN-KETTERING CANCER CENTER, priority 2012, published 2015).
Entries after “also recorded” stand apart in the source; their conditions may differ.

Columns and labels:
[1] = test system: HEK 293T cells; assay: Growth of wild-type cells on L-Lysine precursors (Resazurin/AlamarBlue); format: cell-based, human; settings: wild-type HEK 293T; medium without L-Lysine supplemented with high (mM-range) concentrations of precursor
Method: (§1) (a) Cells were seeded in 96 well format using at least 4 replicates per condition and cell proliferation was measured with the Resazurin (AlamarBlue) assay at the time indicated.
(§2) To investigate the candidate precursors and eliminate those that autonomously rescue L-Lysine auxotrophy, growth rates in SILAC media supplemented with L-Lysine, various precursors, or in L-Lysine-free conditions were examined.
(§3) Cell lines were grown in Dulbecco's modified Eagle's medium (DMEM) without L-Lysine and L-Arginine (SILAC-DMEM, Thermo Fisher Scientific) supplemented with 10% dialyzed FBS, antibiotics, and L-glutamine. […] Cell viability was measured using either the metabolic-activity based Resazurin (Sigma) reagent or the impedance-based xCELLigence system (Roche). For Resazurin experiments, 25 μL of the Resazurin reagent was added to each well and cellular growth was estimated after two to three hours of incubation at 37° C. as described by the manufacturer. For xCELLigence experiments, cells were plated in either 16 or 96-well E-plates, allowed to settle for 30 minutes at room temperature, and then placed in the RTCA DP or RTCA MP analyzer where impedance was measured every 15 minutes for 96-120 hours. At least three replicates were performed for each condition.

[2] = test system: 3T3 cells; assay: as above; format: cell-based, mouse; settings: wild-type 3T3; medium without L-Lysine supplemented with high (mM-range) concentrations of precursor
Method: as §1, §2, §3

[3] = test system: DDC-expressing 3T3 cells; assay: Growth rescue on precursors in L-Lysine-free medium (xCELLigence impedance); format: cell-based, mouse; settings: 10 mM DAP or 4 mM D-Lysine, mono-culture
Method: (§4) Cell growth, assessed with impedance (a correlate of the number of cells) using the xCELLigence system, was normalized to maximum growth. Error bars represent the standard deviation of three biological replicates.
as §3

[4] = test system: lyr-expressing MDA-MB-231 cells; assay: as above; format: cell-based, human; settings: 4 mM D-Lysine or 10 mM DAP, mono-culture
Method: as §4, §3

[5] = test system: HEK293T cells expressing a truncated Lysine racemase (lyr); assay: Growth on D-lysine of cells expressing truncated lyr (xCELLigence impedance); format: cell-based, human; settings: mono- and co-culture in vitro
Method: as §4
(§5) Cell lines were grown in Dulbecco's modified Eagle's medium (DMEM) without L-Lysine and L-Arginine (SILAC-DMEM, Thermo Fisher Scientific) supplemented with 10% dialyzed FBS, antibiotics, and L-glutamine. For mono-culture growth assays, 1 mM L-Arginine was added to the media and cells were seeded in 200 μL in 96-well plates with 4000 or 5000 cells per well in different concentrations of L-Lysine, meso-2,6-diaminopimelate (DAP, Sigma, 33240), D-Lysine HCL (Sigma, L5876), N-α-Cbz-L-Lysine (Z-Lysine, BaChem, C-2200), or N2-acetyl-L-Lysine (N2A, Sigma, A2010). Cell viability was measured using either the metabolic-activity based Resazurin (Sigma) reagent or the impedance-based xCELLigence system (Roche). For Resazurin experiments, 25 μL of the Resazurin reagent was added to each well and cellular growth was estimated after two to three hours of incubation at 37° C. as described by the manufacturer. For xCELLigence experiments, cells were plated in either 16 or 96-well E-plates, allowed to settle for 30 minutes at room temperature, and then placed in the RTCA DP or RTCA MP analyzer where impedance was measured every 15 minutes for 96-120 hours. […]

[6] = test system: MDA-MB-231 cells expressing truncated Lysine racemase (lyr); assay: Growth on D-lysine of cells expressing truncated lyr; format: cell-based, human; settings: mono- and co-culture in vitro
Method: Cell lines were grown in Dulbecco's modified Eagle's medium (DMEM) without L-Lysine and L-Arginine (SILAC-DMEM, Thermo Fisher Scientific) supplemented with 10% dialyzed FBS, antibiotics, and L-glutamine. For mono-culture growth assays, 1 mM L-Arginine was added to the media and cells were seeded in 200 μL in 96-well plates with 4000 or 5000 cells per well in different concentrations of L-Lysine, meso-2,6-diaminopimelate (DAP, Sigma, 33240), D-Lysine HCL (Sigma, L5876), N-α-Cbz-L-Lysine (Z-Lysine, BaChem, C-2200), or N2-acetyl-L-Lysine (N2A, Sigma, A2010). Cell viability was measured using either the metabolic-activity based Resazurin (Sigma) reagent or the impedance-based xCELLigence system (Roche). For Resazurin experiments, 25 μL of the Resazurin reagent was added to each well and cellular growth was estimated after two to three hours of incubation at 37° C. as described by the manufacturer. For xCELLigence experiments, cells were plated in either 16 or 96-well E-plates, allowed to settle for 30 minutes at room temperature, and then placed in the RTCA DP or RTCA MP analyzer where impedance was measured every 15 minutes for 96-120 hours. At least three replicates were performed for each condition.

[7] = test system: B16 cells expressing truncated Lysine racemase (lyr); assay: as above; format: cell-based, mouse; settings: mono- and co-culture in vitro
Method: CTAP can be quickly adaptable across many cell types without phenotypic or molecular disturbance. Cell lines that are suitable for use in practicing the method of the invention include, but are not limited to mouse fibroblast 3T3 cells, mouse melanoma, B16 cells, human embryonic kidney (HEK) cells, human mammary adenocarcinoma cells, […], etc.
as §5, with “For Resazurin experiments, 25 μL of the Resazurin reagent was added to each well and cellular growth was estimated after two to three hours of incubation at 37° C. as described by the manufacturer.” left out

[8] = test system: DDC-expressing HEK293T cells; assay: Growth rescue on precursors in L-Lysine-free medium (xCELLigence impedance); format: cell-based, human; settings: 10 mM DAP, mono-culture
Method: FIG. 9 are graphs showing that HEK293T cells expressing the L-Lysine biosynthesis enzyme diaminopimelate decarboxylase (DDC) specifically grow on meso-2,6-diaminopimelate (DAP). HEK293T cells stably transfected with DDC (left panel) or empty control vector (right panel) were cultured in 0.798 mM L-Lysine, 10 mM DAP, or neither (blank). Cell growth was estimated by the impedance-based xCelligence assay and data was normalized to the maximum value for each cell-type. Note that only HEK293T cells that express DDC grow on DAP. Error bars represent the standard deviation of three biological replicates.
The time to reach normal growth rates varied between cell-types from immediate to a short passaging/selection period.
as §3, with “For Resazurin experiments, 25 μL of the Resazurin reagent was added to each well and cellular growth was estimated after two to three hours of incubation at 37° C. as described by the manufacturer.” left out, “At least three replicates were performed for each condition.” left out

[9] = test system: CBZcleaver-expressing 3T3 cells; assay: Growth on Z-Lysine (xCELLigence impedance); format: cell-based, mouse; settings: 2.5 mM Z-Lysine, L-Lysine-free
Method: FIG. 10 are graphs showing that 3T3 cells expressing the CBZcleaver enzyme grow on Z-Lysine and partially incorporate L-Lysine produced from Z-Lysine (CBZ-Lysine). (a) 3T3 cells stably trasfected with CBZcleaver (left panel) or empty control vector (right panel) were cultured in 0.798 mM L-Lysine, 2.5 mM Z-Lysine, or without either (blank). Cell growth was estimated by the impedance-based xCELLigence assay and data was normalized to maximum values for each cell-type. Error bars represent the standard deviation of three biological replicates. […] The labeling status was assessed by quantitative LC-MS/MS at the beginning of the experiment where the cells were labeled with medium L-Lysine (left, K4) and after 10 days in L-Lysine-free media with heavy labeled Z-Lysine (right, Z8). […]
as §3, with “For Resazurin experiments, 25 μL of the Resazurin reagent was added to each well and cellular growth was estimated after two to three hours of incubation at 37° C. as described by the manufacturer.” left out, “At least three replicates were performed for each condition.” left out

Structure (SMILES): NCCCC[C@@H](N)C(=O)O [D-Lysine]
- growth response [1]: no or limited growth response
- growth response [2]: no or limited growth response
- growth rate relative to media containing L-Lysine [3]: no growth
- growth rate relative to media containing L-Lysine [4]: comparable
- growth on D-lysine relative to growth on L-lysine [5]: comparable
- growth on D-lysine relative to growth on L-lysine [6]: comparable
- growth on D-lysine relative to growth on L-lysine [7]: comparable

Structure (SMILES): N[C@H](CCC[C@H](N)C(=O)O)C(=O)O [DAP, meso-2,6-diaminopimelate]
- growth response [1]: no or limited growth response
- growth response [2]: no or limited growth response
- growth rate relative to media containing L-Lysine [3]: comparable
- growth rate relative to media containing L-Lysine [8]: comparable
- growth rate relative to media containing L-Lysine [4]: no growth

Structure (SMILES): CC(=O)N[C@@H](CCCCN)C(=O)O [N2A, N2-acetyl-L-Lysine]
- growth response [1]: substantial growth response
- growth response [2]: substantial growth response

Structure (SMILES): NCCCC[C@H](NC(=O)OCc1ccccc1)C(=O)O [Z-Lysine, N-α-Cbz-L-Lysine]
- growth response [1]: no or limited growth response
- growth response [2]: no or limited growth response
- growth on Z-Lysine [9]: incomplete; also recorded: specific growth rescue
